Assay results taken from publication PMC10714400, “Antimicrobial Peptide–Peptoid Hybrids with and without Membrane Disruption” (ACS Infectious Diseases, 2023).
Entries after “also recorded” stand apart in the source; their conditions may differ. Where two headings read alike, the source gives them in different places. Where a SMILES comes first, the peptide text is derived from it. [ ]: non-standard residue; d: D form. Nleu = CC(C)CNCC(=O)O; Nlys = NCCCCNCC(=O)O

Key:
HEK293 cells = assay: Cell viability assay by Alamar blue; conditions: for IC50: read-out: Toxicity on HEK293 cells, CSV
Protocol: The data are represented as the mean value ± SD, n = 3. […] (c) Vesicle leakage assay for a selection of compounds. Lipid vesicles made of EYPG or EYPC were suspended in a buffer (10 mM TRIS, 107 mM NaCl, pH 7.4). After 45 s, the indicated compound was added to reach the desired concentration. After 240 s, 30 μL of 1.2% TritonX-100 was added for full fluorescein release. […] See Supporting Information for the full curves, all of the data, and procedures.
HEK293 cells were cultured and maintained in DMEM high glucose (Dulbecco’s modified Eagle medium, Sigma Aldrich) medium supplemented with 10% FBS (Sigma Aldrich) and 1% penicillin/streptomycin. A549 cells were cultured and maintained in RPMI-1640 medium (Sigma Aldrich), supplemented with 10% FBS (Sigma Aldrich) and 1% penicillin/streptomycin. The cells were handled and subcultured according to the manufacturer instructions. Cells were incubated in a humidified incubator at 37 °C in the presence of 5% CO2.
Assays on HEK293, A549 cells were performed as described earlier.[74] […]

[1] = Lipid vesicle leakage assay; conditions: 10 mM TRIS, 107 mM NaCl, pH 7.4; for Vesicle leakage activity on EYPC vesicles: egg yolk phosphatidyl choline vesicles; for Vesicle leakage activity on EYPG vesicles: fluorescein-loaded anionic EYPG vesicles
Protocol: (c) Vesicle leakage assay for a selection of compounds.
EYPG - EB11 1 EYPC - EB11
Figure S2: Vesicle leakage experiments using 5(6)-carboxyfluorescein induced by peptides. EYPG and EYPC
compound was added after 45 sec. After 240 seconds, 30 µL Triton X-100 1.2% was added for full release of […]

P. aeruginosa PAO1 = assay: NPN outer membrane permeability assay; format: cell-based, Pseudomonas aeruginosa
Protocol: (§1) Figure 5 Interactions of peptide–peptoid hybrids with bacterial outer and inner membranes of P. aeruginosa. (a, b) NPN outer membrane permeability assay. P. aeruginosa PAO1 bacteria were treated with increasing compound concentrations in the presence of 10 μM NPN. The fluorescence intensity (λex = 340 nm, λem = 415 nm) was measured within 5 min. Data represent the mean ± SD, n = 3. (c, d) DiSC3(5) inner membrane depolarization assay. P. aeruginosa PAO1 cells were treated with increasing compound concentrations in the presence of 2 μM DiSC3(5). The fluorescence intensity (λex = 610 nm, λem = 660 nm) was measured within 5 min after treatment, and the data represent mean ± SD, n = 3.
A single colony of P. aeruginosa PAO1 and E. coli W3110 was grown overnight while being shaken (150 rpm) in LB-broth (5 mL) at 37 °C. 100 μL of the overnight culture was regrown in 10 mL of LB broth with shaking (200 rpm) to the exponential phase (OD600 = 1, corresponding to 10^9 CFU/mL). Bacteria were washed three times with HEPES buffer (5 mM HEPES, 5 mM glucose, pH 7.4), but not diluted yet to their final concentration. 200 μL of peptide samples was added to the first well of 96-well plates (black wells, flat bottom, BRAND GmbH Wertheim, Germany), 100 μL of HEPES/glucose buffer with 10 μM N-phenyl-1-naphthylamine (NPN, purchased from Acros Organics) was added in all the wells, and the compounds were diluted serially by 1/2 (add a control with a final volume of 200 μL with 10 μM NPN in buffer only). Ca. 10 min before the measurement and the final dilution of the bacteria, the plates and the 10 μM NPN in HEPES/glucose buffer (for bacteria dilution) were incubated at 37 °C (prior to the dilution of the bacteria with buffer containing NPN 10 μM). Later, the bacteria were diluted to OD600 = 0.5 with the NPN in HEPES/glucose buffer. 100 μL of the bacterial suspension was added to each well. In this case, the final OD of bacteria was 0.25, the final concentration of the desired compound 64 μg/mL, and NPN 10 μM. The control wells are buffer containing NPN (10 μM, 200 μL) and bacterial suspension containing NPN in HEPES buffer. The plate was measured with a Tecan instrument Infinite M1000 within 5 min. The plate was enabled to shake for 5 s before measurement. The excitation wavelength used was 340 ± 5 nm, and emission wavelength was 415 ± 5 nm. The assay was repeated at least three times.

E. coli W3110 = assay: DiSC3(5) inner membrane depolarization assay; format: cell-based, Escherichia coli; conditions: E. coli W3110, 2 μM DiSC3(5)
Protocol: as §1, with “Figure 4” for “Figure 5”, “of E. coli.” for “of P. aeruginosa.”, “assay. E. coli W3110” for “assay. P. aeruginosa PAO1”, “represent” for “represent the”, “assay. E. coli W3110 bacteria” for “assay. P. aeruginosa PAO1 cells”
A single colony of P. aeruginosa PAO1 and E. coli W3110 was grown overnight with shaking (150 rpm) in LB broth (5 mL) at 37 °C. A 100 μL portion of the overnight culture was regrown in 10 mL of LB broth with shaking (200 rpm) to the exponential phase (OD600 = 1, corresponding to 10^9 CFU/mL). Bacteria were washed once with HEPES buffer (5 mM HEPES, 5 mM glucose, pH 7.4) and diluted to an OD600 = 0.5. Stock solution of 10 mM of 3,3′-dipropylthiadicarbocyanine iodide (DiSC3(5), purchased from Sigma) was prepared in DMSO. Stock solutions of 2 mg/mL of the compounds were prepared in sterilized milli-Q water and diluted to the beginning concentration of 128 μg/mL in 200 μL of HEPES buffer containing 4 μM of the fluorescent probe DiSC3(5). The diluted samples were added to the first well of 96-well plates (black wells, flat bottom, BRAND GmbH Wertheim, Germany) and diluted serially by 1/2. 100 μL of the bacterial suspension in HEPES buffer (without fluorophore) was added to each well. In this case, the final OD of bacteria was 0.25, the final concentration of peptide in the first column was 64 μg/mL, and DiSC3(5) was 2 μM. The control wells are buffer containing DiSC3(5) and bacterial suspension containing DiSC3(5) in HEPES buffer. The plate was measured with a Tecan instrument Infinite M1000 within 5 min. […] The assay was measured in triplicate and repeated at least two times.[65],[75]

## CC(C)C[C@H](NC(=O)[C@H](CCCCN)NC(=O)CNCCCCN)C(=O)N[C@@H](CC(C)C)C(=O)N[C@@H](CCCCN)C(=O)N[C@@H](CC(C)C)C(=O)N[C@@H](CC(C)C)C(=O)N[C@@H](CCCCN)C(=O)N[C@@H](CC(C)C)C(=O)N[C@@H](CC(C)C)C(=O)N(CC(N)=O)CC(C)C [EB1] (H-[Nlys]KLLKLLKLL[Nleu]-NH2; N-terminus assumed)
HEK293 cells
  IC50: 110 ± 6 µM
[1]
  Vesicle leakage activity on EYPC vesicles: very low levels of activity
  Vesicle leakage activity on EYPG vesicles: very strong activities

## CC(C)C[C@H](NC(=O)[C@H](CC(C)C)NC(=O)[C@H](CC(C)C)NC(=O)[C@H](CCCCN)NC(=O)[C@H](CC(C)C)NC(=O)[C@H](CC(C)C)NC(=O)CN(CCCCN)C(=O)CN(CC(C)C)C(=O)CN(CC(C)C)C(=O)CN(CCCCN)C(=O)CNCCCCN)C(N)=O [EB5, kkllkLLKLLL] (H-[Nlys][Nlys][Nleu][Nleu][Nlys]LLKLLL-NH2)
P. aeruginosa PAO1; not told
  Outer membrane permeabilization (NPN): permeabilized the outer membrane

## CC(C)C[C@H](NC(=O)[C@H](CC(C)C)NC(=O)[C@H](CC(C)C)NC(=O)[C@H](CCCCN)NC(=O)[C@H](CC(C)C)NC(=O)[C@H](CC(C)C)NC(=O)CN(CCCCN)C(=O)[C@H](CC(C)C)NC(=O)[C@H](CC(C)C)NC(=O)CN(CCCCN)C(=O)CNCCCCN)C(N)=O [EB6, kkLLkLLKLLL] (H-[Nlys][Nlys]LL[Nlys]LLKLLL-NH2)
HEK293 cells
  IC50: 54 ± 1 µM
[1]
  Vesicle leakage activity on EYPC vesicles: very low levels of activity
  Vesicle leakage activity on EYPG vesicles: very strong activities
P. aeruginosa PAO1; not told
  Outer membrane permeabilization (NPN): permeabilized the outer membrane
E. coli W3110
  Inner membrane depolarization (DiSC3(5)): strongly depolarized the inner membrane

## CC(C)C[C@H](NC(=O)CN(CC(C)C)C(=O)[C@H](CC(C)C)NC(=O)CN(CCCCN)C(=O)[C@H](CC(C)C)NC(=O)CN(CC(C)C)C(=O)[C@H](CCCCN)NC(=O)CN(CC(C)C)C(=O)[C@H](CC(C)C)NC(=O)CN(CCCCN)C(=O)[C@@H](N)CCCCN)C(N)=O [EB9, KkLlKlLkLlL] (H-K[Nlys]L[Nleu]K[Nleu]L[Nlys]L[Nleu]L-NH2)
HEK293 cells
  Toxicity against HEK293 cells, no effect detected up to: > 200 µM
  IC50: > 200 µM
[1]
  Vesicle leakage activity on EYPC vesicles: no activity
  Vesicle leakage activity on EYPG vesicles: weak or no vesicle leakage activity; also recorded: inactive
P. aeruginosa PAO1; not told
  Outer membrane permeabilization (NPN): significant outer membrane permeabilization
E. coli W3110
  Inner membrane depolarization (DiSC3(5)): partly depolarized the inner membrane

## CC(C)CN(CC(N)=O)C(=O)CN(CC(C)C)C(=O)CN(CC(C)C)C(=O)CN(CCCCN)C(=O)CN(CC(C)C)C(=O)CN(CC(C)C)C(=O)CN(CCCCN)C(=O)CN(CC(C)C)C(=O)CN(CC(C)C)C(=O)CN(CCCCN)C(=O)CNCCCCN [EB11, kkllkllklll] (H-[Nlys][Nlys][Nleu][Nleu][Nlys][Nleu][Nleu][Nlys][Nleu][Nleu][Nleu]-NH2)
HEK293 cells; Alamar blue, 24 h
  Toxicity against HEK293 cells, no effect detected up to: > 200 µM
HEK293 cells
  IC50: > 200 µM
[1]
  Vesicle leakage activity on EYPC vesicles: no activity
  Vesicle leakage activity on EYPG vesicles: weak or no vesicle leakage activity
P. aeruginosa PAO1; P. aeruginosa PAO1, 10 μM NPN
  Outer membrane permeabilization (NPN): significant outer membrane permeabilization
E. coli W3110
  Inner membrane depolarization (DiSC3(5)): partly depolarized the inner membrane

## CC(C)C[C@H](NC(=O)[C@H](CC(C)C)NC(=O)[C@H](CC(C)C)NC(=O)[C@@H](CCCCN)NC(=O)[C@H](CC(C)C)NC(=O)[C@H](CC(C)C)NC(=O)[C@@H](CCCCN)NC(=O)[C@H](CC(C)C)NC(=O)[C@H](CC(C)C)NC(=O)[C@@H](CCCCN)NC(=O)[C@H](N)CCCCN)C(N)=O [ln69, kkLLkLLkLLL, reference compound] (H-[dK][dK]LL[dK]LL[dK]LLL-NH2)
HEK293 cells
  IC50: 45 ± 9 µM

## H-KKLLKLLKLLL-NH2 [ln65, reference compound]
HEK293 cells
  IC50: 27 ± 6 µM
